According to patent publication US10245255B2, “Compositions and methods for the treatment of obesity and related disorders” (THE REGENTS OF THE UNIVERSITY OF MICHIGAN, priority 2011, dated 2019):
“Also recorded” adds a separate entry of the source.

What was measured:
[1] = Ob/ob mice: body weight, food intake, adipose mass; type: in vivo; conditions: 100 mg/kg
[2] = Diet-induced obese mice: energy expenditure (metabolic cages) and core body temperature; type: in vivo, C57BL/6 mice; conditions: 25 mg/kg
Description: The University of Michigan Animal Metabolic Phenotyping Core measured oxygen consumption (VO2), carbon dioxide production (VCO2) and spontaneous motor activity during 3 consecutive days using the Comprehensive Laboratory Monitoring System (CLAMS, Columbus Instruments), an integrated open-circuit calorimeter equipped with an optical beam activity monitoring system. The respiratory quotient was calculated by dividing carbon dioxide production by oxygen consumption. The mean values for light and dark cycles were used to analyze statistical significance.
Rectal temperature measurements were performed using a YSI 4600 Precision thermometer (YSI, Inc., Yellow Springs, Ohio).

[3] = Ob/ob mice: adipose tissue histology and mRNA levels; type: in vivo
Description: (§1) Tissues were fixed in formalin for 3 days. Histology was performed by the University of Michigan Cancer Center Research Histology Laboratory.
(§2) Mouse tissues were isolated, rinsed in Phosphate Buffered Saline (PBS), frozen in liquid nitrogen and stored at −80° C. until extraction. Total RNA was extracted from Liver, WAT and BAT tissues as well as differentiated 3T3-L1 cells using the RNeasy Lipid Tissue Kit (Qiagen, Valencia, Calif.) according to the manufacturer's instructions with the inclusion of a DNase digestion step. Total RNA was extracted from BMDM and SVF cells using the RNeasy Kit (Qiagen, Valencia, Calif.) with a DNase step. The Superscript First-Strand Synthesis System for RTPCR (Invitrogen, Grand Island, N.Y.) was used with random primers for reverse transcription. Realtime PCR amplification of the cDNA was performed on samples in triplicate with Power SYBR Green PCR Master Mix (Applied Biosystems, Carlsbad, Calif.) using the Applied Biosystems 7900HT Fast Realtime PCR System. […] Data was analyzed using the 2-ΔΔCT method, and statistical significance was determined using the unpaired heterocedastic Student's t-test with one averaged sample value per mouse.

[4] = Ob/ob mice: blood chemistry (glucose, adiponectin, serum cytokines); type: in vivo
Description: (§3) Wild type male C57BL/6 mice were fed a high fat diet consisting of 45% of calories from fat (D12451 Research Diets Inc., New Brunswick, N.J.) starting at 8 weeks of age for 12-24 weeks, while normal diet C57BL/6 controls were maintained on normal chow diet consisting of 4.5% fat (5002 Lab Diet, Philadelphia, Pa.). Diets containing ω-3 fatty acids were fed as previously described 24. Rosiglitazone treatment was administered for three weeks by addition of the compound to the diet in mice that had been on HFD for 16 weeks. Each mouse consumed on average 3.5 mg/kg rosiglitazone per day. Amlexanox was administered by daily oral gavage. […] Animals were housed in a specific pathogen-free facility with a 12-hour light/12-hour dark cycle and given free access to food and water. All animal use was in compliance with the Institute of Laboratory Animal Research Guide for the Care and Use of Laboratory Animals and approved by the University Committee on Use and Care of Animals at the University of Michigan and UCSD.
Blood glucose was measured by OneTouch Ultra Glucometer. Plasma from mice fasted for six hours was isolated from whole blood collected into heparinized tubes. Insulin concentrations were measured by insulin ELISA kit (Crystal Chem Inc., Downers Grove, Ill.). Leptin and adiponectin levels were measured by ELISA kits purchased from Cayman Chem Inc. (Ann Arbor, Mich.). Cytokine levels were quantified utilizing luminex technology in a multianalyte panel plate purchased from Millipore (Billerica, Mass.). Additionally, TNFα levels were measured using ELISA kits purchased from R&D Systems (Minneapolis, Minn.).

BAT explants = assay: Lipid oxidation rate in ex vivo BAT; set-up: species or system mice; conditions: 5 μM amlexanox, 1 hour
Description: Lipid oxidation was determined by the conversion of 3H-palmitic acid to 3H2O.

[5] = Diet-induced obese mice: tissue protein, phosphorylation and gene expression (liver, WAT, BAT); type: in vivo, C57BL/6 mice
Description: as §3
Tissues were homogenized in lysis buffer (50 mM Tris, pH 7.5, 5 mM EDTA, 250 mM sucrose, 1% NP40, 2 mM DTT, 1 mM sodium vanadate, 100 mM NaF, 10 mM Na4P2O7, and freshly added protease inhibitor tablet), then incubated for one hour at 4° C. Crude lysates were then centrifuged at 14,000×g for 15 minutes twice and the protein concentration was determined using BioRad Protein Assay Reagent. Samples were diluted in sodium dodecyl sulfate (SDS) sample buffer. Bound proteins were resolved by SDS-polyacrylamide gel electrophoresis and transferred to nitrocellulose membranes (Bio-Rad, Hercules, Calif.). Individual proteins were detected with the specific antibodies and visualised on film using horseradish peroxidase-conjugated secondary antibodies (Bio-Rad, Hercules, Calif.) and Western Lightning Enhanced Chemiluminescence (Perkin Elmer Life Sciences, Waltham, Mass.).
as §1, §2

[6] = Ob/ob mice: liver weight, triglycerides, histology; type: in vivo; conditions: 100 mg/kg for 14 weeks
[7] = Diet-induced obesity treatment group: insulin tolerance test; type: in vivo, C57BL/6 mice
Description: as §3
For glucose tolerance tests, after a six-hour fast mice were orally gavaged with glucose at a dose of 1.5 g/kg (C57BL/6 mice) or 1.2 g/kg (ob/ob mice). […] Blood glucose was measured at basal, 15, 30, 45, 60, 90, 120 and 180 minutes from tail blood using the One Touch Ultra glucometer (Lifescan, Milpitas, Calif.).

CC(C)c1ccc2oc3nc(N)c(C(=O)O)cc3c(=O)c2c1 [amlexanox, 2-amino-7-isopropyl-5-oxo-5H-chromeno[2,3-b]pyridine-3-carboxylic acid]
adipose tissue mass [1]: significant decrease | weight loss ([1]; after 4 weeks of treatment): 7 to 8 g | body temperature (rectal) ([2]; compared to HFD vehicle treated mice): approximate one-degree increase | exhaled carbon dioxide ([2]; diet induced obese mice, four-week treatment): significantly increased | oxygen consumption (VO2) ([2]; diet induced obese mice, four-week treatment, vs vehicle): significantly increased; also recorded: significantly higher | expression of Glut4 in WAT ([3]; 100 mg/kg): Increased expression | expression of PPARγ in WAT ([3]; 100 mg/kg): Increased expression | adipose tissue mRNA level, CD11c ([3]; 100 mg/kg for 12 weeks): marked reduction | adipose tissue mRNA level, F4/80 ([3]; 100 mg/kg for 12 weeks): marked reduction | adipose tissue mRNA level, IL-10 ([3]; 100 mg/kg for 12 weeks): marked reduction | adipose tissue mRNA level, MCP-1 ([3]; 100 mg/kg for 12 weeks): marked reduction | adipose tissue mRNA level, MIP1α ([3]; 100 mg/kg for 12 weeks): marked reduction | adipose tissue mRNA level, Rantes ([3]; 100 mg/kg for 12 weeks): marked reduction | adipose tissue mRNA level, TNFα ([3]; 100 mg/kg for 12 weeks): marked reduction | infiltration of inflammatory macrophages in adipose tissue (H & E) ([3]; 100 mg/kg for 12 weeks, epididymal fat): markedly reduced | circulating (serum) level of MCP-1 ([4]; 100 mg/kg): not significantly affected | circulating (serum) level of Rantes ([4]; 100 mg/kg): not significantly affected | circulating adiponectin levels ([4]; 100 mg/kg): increase | reduction in fasting glucose levels ([4]; 100 mg/kg): 25% | serum level of IL-1α ([4]; 100 mg/kg): markedly reduced | serum level of MIP1α ([4]; 100 mg/kg): markedly reduced | serum level of TNFα ([4]; 100 mg/kg): markedly reduced | serum level of IL-10 ([4]; compared to controls): elevated | lipid oxidation (3H-palmitic acid to 3H2O) (BAT explants): acutely stimulated | expression of brown fat-specific marker Cidea in BAT ([5]; HFD, 25 mg/kg daily): increased | UCP1 protein levels in brown fat ([5]; HFD, treatment group): increased | mitochondrial genes in brown fat ([5]; compared to control): no increases | signaling through the mTORC1 pathway in BAT ([5]; compared to controls): Reduced signaling | TBK1 phosphorylation in adipose tissue ([5]; diet induced obese mice): prevented | high fat diet induction of IKKε protein in adipose tissue ([5]; diet induced obese mice): blocked | high fat diet-induced increase of S6K phosphorylation in adipose tissue ([5]; diet induced obese mice): largely attenuated | UCP-1 protein levels in adipose tissue ([5]; diet induced obese mice vs HFD vehicle): increased | brown fat appearance ([5]; high fat diet): reverted to its normal appearance | hormone sensitive lipase phosphorylation in adipose tissue ([5]; high fat diet): prevented the reduction | BAT lipids when amlexanox treatment was stopped ([5]; high fat diet, withdrawal): lipids again accumulated | genetic measures of hepatosteatosis ([5]; mice with diet induced obesity): similarly reduced | IKKε protein levels in BAT ([5]; mouse, in vivo): reduced | TBK1 protein levels in BAT ([5]; mouse, in vivo): reduced | large lipid droplets in liver (H & E staining) [6]: largely disseminated | reduction in liver weight [6]: greater than 20% | reduction of triglyceride contents in livers [6]: more than 50% | insulin sensitivity (insulin tolerance test) ([7]; 25 mg/kg, established diet-induced obesity): restoration in insulin responsiveness to normal diet levels | insulin sensitivity in normal diet-fed mice ([7]; normal diet): did not affect
